{"source": "patent US20240180909A1", "about": "“Dosing Regimens for Elagolix” (AbbVie Inc., priority 2018, published 2024)", "test_system": "premenopausal women with heavy menstrual bleeding associated with uterine fibroids", "test": "Twelve month study with 300 mg BID (initial studies and extension study), heavy menstrual bleeding responder rate", "format": "in vivo, human", "protocol": "This study was a randomized, double-blind, multicenter, extension study designed to evaluate the efficacy and safety of elagolix alone and in combination with an exemplary low-dose hormone (add-back) therapy (estradiol (“E2”) 1.0 mg/norethindrone acetate (“NETA”) 0.5 mg) in premenopausal women with heavy menstrual bleeding associated with uterine fibroids for up to 12 months total (an initial 6 months on active treatment in one of two replicate initial (i.e., pivotal) studies and an additional 6 months in this extension study.\nSubjects who received elagolix 300 mg twice daily or elagolix 300 mg twice daily in combination with E2/NETA in the initial studies continued to receive the same treatment (n=94 and 206, respectively) while subjects who received placebo in the initial studies were randomized in an equal ratio to one of the two treatment groups (elagolix 300 mg BID (n=56) or elagolix 300 mg BID+E2/NETA (n=54)).\nThe primary efficacy endpoint was the percentage of subjects meeting the responder criteria: a) menstrual blood loss (MBL) volume<80 mL during the final, AND b) 50% or greater reduction in MBL volume from baseline to the final month. […]", "data": [{"smiles": "COc1cccc(-c2c(C)n(Cc3c(F)cccc3C(F)(F)F)c(=O)n(C[C@H](NCCCC(=O)O)c3ccccc3)c2=O)c1F", "note": "[Elagolix, 4-((R)-2-[5-(2-fluoro-3-methoxy-phenyl)-3-(2-fluoro-6-trifluoromethyl-benzyl)-4-methyl-2,6-dioxo-3,6-dihydro-2H-pyrimidin-1-yl]-1-phenyl-ethylamino)-butyric acid]", "values": [{"measurement": "Hypoestrogenic effects, such as hot flush and reduction in bone mineral density", "setting": "initial and extension studies, elagolix 300 mg BID", "result": "observed"}, {"measurement": "safety signals", "setting": "up to twelve months of treatment", "result": "no new safety signals"}]}]}
